According to patent US9895422B2, “Combination of dopamine agonists plus first phase insulin secretagogues for the treatment of metabolic disorders” (VeroScience LLC, priority 2009, dated 2018):
Counter-ions that a name gives are not always drawn.

Columns and labels:
[1] = tested on: Male Syrian hamsters known to develop insulin resistance and glucose intolerance; assay: Glucose tolerance test (GTT), similarly designed experiment with insulin as first phase insulin secretagogue; format: in vivo, Syrian hamster
Protocol: Male Syrian hamsters known to develop insulin resistance and glucose intolerance were purchased at 4 weeks of age and kept on rodent diet for 10 weeks at 72 degrees F. and a 14 hr:10 hr daily light:dark cycle. When animals were 14 weeks of age on this daily photoperiod (known to be insulin resistant and glucose intolerant under these conditions), bromocriptine mesylate was administered intraperitoneally (IP) for 2 weeks at 4 mg/kg per hamster 13 hours after light onset to half of the animals, while the other half received vehicle injections for 2 weeks.
After 2 weeks of treatment both Bromocriptine and vehicle groups were divided into two groups for a total of 4 groups: 1. Vehicle for 2 weeks and Vehicle at initiation of a glucose tolerance test (GTT); 2. […] Bromocriptine for 2 weeks and Vehicle at GTT; 4.
Blood was drawn from the jugular vein and blood glucose level was measured every 30 minutes for 2 hours after the glucose load administration.

[2] = tested on: Male Syrian hamsters known to develop insulin resistance and glucose intolerance; assay: Glucose tolerance test (GTT) after 2 weeks of bromocriptine, with or without Exendin-4 at the GTT; format: in vivo, Syrian hamster; settings: bromocriptine mesylate 4 mg/kg IP for 2 weeks, vehicle at GTT; 3 g/kg glucose; P<0.09

Compound | reduction of glucose AUC over two hours after glucose administration ([1]; insulin 240 ng/kg IP immediately prior to glucose administration, P=0.64) | reduction of glucose AUC over two hours after glucose administration ([1]; bromocriptine for 2 weeks, insulin experiment, P=0.23) | reduction of blood glucose Area Under Curve (AUC) during the GTT over two hours after glucose administration [2]
insulin | not significantly reduced |  | 
CC(C)C[C@H]1C(=O)N2CCC[C@H]2[C@]2(O)O[C@](NC(=O)[C@@H]3C=C4c5cccc6[nH]c(Br)c(c56)C[C@H]4N(C)C3)(C(C)C)C(=O)N12 [Bromocriptine, bromocriptine mesylate] |  | 28% | 21%
